Experimental data from PubChem BioAssay AID602398 (The Scripps Research Institute Molecular Screening Center, 2012).
Active and inactive are the calls of the source. No rule for the calls is given here.

Biological target: Tyrosine-protein kinase ABL1 (Homo sapiens) + Ras and Rab interactor 1 (Homo sapiens) (UniProt P00519+Q13671)
Experiment: Rin1-Abl binding inhibitor potency, late-stage follow-up, biochemical, TR-FRET, dose response (AID 602398)

Chain of Tyrosine-protein kinase ABL1 (Homo sapiens) + Ras and Rab interactor 1 (Homo sapiens) (P00519 whole entry, looked up): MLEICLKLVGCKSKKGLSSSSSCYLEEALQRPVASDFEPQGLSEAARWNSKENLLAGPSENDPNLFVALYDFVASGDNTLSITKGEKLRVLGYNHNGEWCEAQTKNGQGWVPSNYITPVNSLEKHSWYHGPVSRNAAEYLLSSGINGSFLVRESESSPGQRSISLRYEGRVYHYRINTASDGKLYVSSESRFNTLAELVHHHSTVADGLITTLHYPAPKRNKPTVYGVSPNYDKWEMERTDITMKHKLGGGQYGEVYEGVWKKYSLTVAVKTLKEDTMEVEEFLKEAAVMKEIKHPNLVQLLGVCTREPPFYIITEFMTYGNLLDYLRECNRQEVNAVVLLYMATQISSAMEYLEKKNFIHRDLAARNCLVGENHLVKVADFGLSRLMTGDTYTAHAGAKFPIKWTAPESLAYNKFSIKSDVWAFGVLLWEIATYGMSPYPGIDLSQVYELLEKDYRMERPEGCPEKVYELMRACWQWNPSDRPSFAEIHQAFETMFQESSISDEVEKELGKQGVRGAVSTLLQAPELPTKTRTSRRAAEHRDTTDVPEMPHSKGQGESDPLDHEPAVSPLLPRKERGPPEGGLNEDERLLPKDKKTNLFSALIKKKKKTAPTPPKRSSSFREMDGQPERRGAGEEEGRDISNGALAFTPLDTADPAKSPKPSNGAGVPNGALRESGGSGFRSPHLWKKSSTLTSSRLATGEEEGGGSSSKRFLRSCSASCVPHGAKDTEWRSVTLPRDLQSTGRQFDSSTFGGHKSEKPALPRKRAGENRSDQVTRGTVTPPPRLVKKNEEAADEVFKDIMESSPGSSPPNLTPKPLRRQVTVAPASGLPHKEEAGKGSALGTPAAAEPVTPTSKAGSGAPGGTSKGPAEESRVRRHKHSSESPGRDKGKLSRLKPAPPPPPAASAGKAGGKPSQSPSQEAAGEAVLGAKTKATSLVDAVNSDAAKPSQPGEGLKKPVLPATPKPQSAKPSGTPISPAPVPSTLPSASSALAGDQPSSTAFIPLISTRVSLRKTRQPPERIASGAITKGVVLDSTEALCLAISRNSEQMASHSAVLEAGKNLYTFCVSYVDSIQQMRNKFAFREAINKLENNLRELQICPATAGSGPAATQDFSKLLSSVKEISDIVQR
Chain of Tyrosine-protein kinase ABL1 (Homo sapiens) + Ras and Rab interactor 1 (Homo sapiens) (Q13671 whole entry, looked up): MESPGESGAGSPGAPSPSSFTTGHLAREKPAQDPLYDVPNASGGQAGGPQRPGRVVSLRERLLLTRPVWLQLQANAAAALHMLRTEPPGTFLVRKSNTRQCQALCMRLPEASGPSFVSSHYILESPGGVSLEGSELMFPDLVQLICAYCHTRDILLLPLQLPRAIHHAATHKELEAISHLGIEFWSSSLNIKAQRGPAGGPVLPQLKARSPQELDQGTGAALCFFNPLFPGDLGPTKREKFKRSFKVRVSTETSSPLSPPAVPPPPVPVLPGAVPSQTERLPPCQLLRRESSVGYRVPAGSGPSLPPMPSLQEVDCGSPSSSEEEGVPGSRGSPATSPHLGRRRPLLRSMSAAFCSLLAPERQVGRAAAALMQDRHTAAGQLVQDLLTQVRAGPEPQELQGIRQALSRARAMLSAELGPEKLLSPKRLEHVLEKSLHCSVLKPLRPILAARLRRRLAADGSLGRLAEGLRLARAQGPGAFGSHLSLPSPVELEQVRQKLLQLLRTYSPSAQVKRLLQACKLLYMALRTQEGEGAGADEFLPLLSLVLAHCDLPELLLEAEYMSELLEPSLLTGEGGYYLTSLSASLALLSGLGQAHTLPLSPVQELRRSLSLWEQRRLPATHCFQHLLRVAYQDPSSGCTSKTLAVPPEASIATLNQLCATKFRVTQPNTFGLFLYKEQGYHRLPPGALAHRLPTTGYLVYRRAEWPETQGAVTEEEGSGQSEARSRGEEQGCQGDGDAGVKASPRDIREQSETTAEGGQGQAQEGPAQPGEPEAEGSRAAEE

Compound | IC50
COc1cccc(CSc2nnc(CSc3nc4nc(C)cc(C)n4n3)s2)c1 | 9.57 µM
CC(=O)Nc1ccc(NC(=O)C2CCN(C(=O)c3cccs3)CC2)cc1 | 2.17 µM
O=C(Cc1ccc(NC(=O)C2CCN(C(=O)C3CCCCC3)CC2)cc1)Nc1ccc(C(=O)N2CCOCC2)cc1 | inactive
CN(Cc1c(F)cccc1Cl)C(=O)CNC(=O)c1ccc2c(c1)OCO2 | 3.77 µM
COc1ccc2oc(C(=O)NCC(c3ccco3)N(C)C)c(C)c2c1 (stereo not drawn) | 5.19 µM
O=C(Cc1ccc(NC(=O)C2CCN(C(=O)c3ccccc3)CC2)cc1)Nc1ccc(C(=O)N2CCOCC2)cc1 | inactive
Cc1c(C(=O)NCC(c2ccco2)N(C)C)oc2c(Cl)cccc12 (stereo not drawn) | 4.68 µM
CN(CCc1ccccc1)C(=O)c1ccc(NC(=O)Cc2ccc(NC(=O)C3CCN(C(=O)c4ccccc4)CC3)cc2)cc1 | 8.52 µM
N#Cc1ccccc1Sc1ccccc1C(=O)NCC(c1ccco1)N1CCCC1 (stereo not drawn) | 4.08 µM
CCOC(=O)N1CCN(C(=O)Nc2ccc(NC(=O)N3CCN(C(=O)OCC)CC3)cc2)CC1 | inactive
COc1ccc(CCNc2cc(=O)[nH]c(N)n2)cc1 | 4.01 µM
Cn1c(=O)c2c(nc(-n3ccnc3)n2Cc2ccc(Cl)cc2Cl)n(C)c1=O | 4.31 µM
CN(CCc1ccccc1)C(=O)c1ccc(NC(=O)Cc2ccc(NC(=O)C3CCN(C(=O)C4CCCC4)CC3)cc2)cc1 | 5.22 µM
CN(C(=O)c1ccc(NC(=O)Cc2ccc(NC(=O)C3CCN(C(=O)c4ccccc4)CC3)cc2)cc1)C1CC1 | 2.53 µM
O=c1cc(OCc2ccccc2)cc[nH]1 | 0.0161 µM
O=C(Cc1ccc(NC(=O)C2CCN(C(=O)C3CCCC3)CC2)cc1)Nc1ccc(C(=O)N2CCOCC2)cc1 | 4.37 µM
CSc1ccccc1OCc1cc(C(=O)N2CCNC(=O)C2)no1 | 5.94 µM
CCOC(=O)N1CCC(NC(=O)CCc2nc(C3=CCN(C)CC3)no2)CC1 | 9.41 µM
